The record followed here is paper PMC4291223, “Inhibitors of CLK Protein Kinases Suppress Cell Growth and Induce Apoptosis by Modulating Pre-mRNA Splicing” (PLoS ONE, 2015).

Assay [1] relates to S6K pre-mRNA splicing in HCT-116 cells. In words: S6K pre-mRNA splicing alteration (quantitative RT-PCR), HCT-116. The assay is classed as cell-based, human. Conditions: ratio of S6K exons 6–8 to exons 6–7 is 0.1. The text has this: To examine whether inhibition of a particular CLK and/or SRPK contributed to the alternative splicing of S6K pre-mRNA, we used an additional series of compounds with the same scaffold as Cpd-1, Cpd-2, and Cpd-3, but different selectivity. First, we examined the correlation between the enzymatic activity and the level of splicing alterations of S6K pre-mRNA for the individual compounds. We used the exon 7-skipped type of S6K variant to calibrate Rc0.1 values, i.e., the concentrations that induced 10% of the copy number of an alternative isoform compared with that of the canonical isoform. The inhibition of CLK1 and CLK2 activities was correlated with the splicing alteration activities (Rc0.1) (R^2 = 0.3353 and 0.4255, respectively). In contrast, there was no correlation between the activities of SRPKs and the Rc0.1 values (R^2 < 0.0468) (Fig. 3A). Next, we compared the levels of splicing alteration and growth inhibition of the compounds. […] Similar correlations between Rc0.1 and GI50 values were also obtained in seven different cancer cell lines after treatment with Cpd-2 or Cpd-3 (Table 2).
Total RNA was extracted using an RNeasy Miniprep Kit (Qiagen, Valencia, CA) in accordance with the manufacturer’s instructions. Reverse transcription was performed using a TaqMan Reverse Transcription Reagents Kit (Applied Biosystems, Carlsbad, CA). The PCR conditions were as follows: one cycle of 5 min at 95°C; 35 cycles of 30 s at 94°C, 30 s at 60°C, and 30 s at 72°C; and one cycle of 10 min at 72°C. The PCR products were separated in 2% agarose gels. Real-time PCR was performed using a TaqMan MGB probe (Applied Biosystems), and the amount of FAM fluorescence was measured as a function of the PCR cycle number (CT) using an ABI 7900 Real-time PCR System (Applied Biosystems). The expression level of each mRNA was normalized by that of GAPDH mRNA.

Assay [2] concerns nuclear speckles in MDA-MB-468 cells. In words: Immunofluorescence of nuclear speckles (anti-SC35). Format: cell-based, human. Conditions: MDA-MB-468, 6 h, anti-SC35 antibody. The protocol: MDA-MB-468 cells were fixed with 4% paraformaldehyde for 30 min at room temperature, washed with PBS, blocked with 5% BSA in PBS, incubated with an anti-SC35 antibody (Abcam, Cambridge, UK) for 1 h at room temperature, and incubated with a secondary antibody for 1 h. The cells were mounted and counterstained with DAPI (Vector Laboratories, Burlingame, CA) and detected using fluorescence microscopy.

The target of a further assay is T1, CLK2 (Homo sapiens, UniProt P49760).
T1 construct: purchased Life Technologies
T1 sequence (P49760 whole entry): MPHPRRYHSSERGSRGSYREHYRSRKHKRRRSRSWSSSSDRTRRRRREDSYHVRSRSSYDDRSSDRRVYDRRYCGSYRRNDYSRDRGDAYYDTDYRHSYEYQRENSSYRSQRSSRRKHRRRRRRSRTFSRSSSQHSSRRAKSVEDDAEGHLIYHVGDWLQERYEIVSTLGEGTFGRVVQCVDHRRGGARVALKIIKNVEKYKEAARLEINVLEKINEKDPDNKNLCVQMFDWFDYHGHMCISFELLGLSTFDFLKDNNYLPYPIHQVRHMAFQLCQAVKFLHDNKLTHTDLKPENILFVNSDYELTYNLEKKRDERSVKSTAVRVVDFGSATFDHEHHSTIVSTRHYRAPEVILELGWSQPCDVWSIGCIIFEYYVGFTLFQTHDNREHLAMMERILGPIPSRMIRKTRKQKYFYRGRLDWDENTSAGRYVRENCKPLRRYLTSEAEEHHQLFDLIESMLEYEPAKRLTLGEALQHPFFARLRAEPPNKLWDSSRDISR
In words: Kinase panel assay (Z'-LYTE, SelectScreen), CLK2 among 28 kinases. Format: biochemical. The note with it: 100 and 1000 nM. As for the experimental part: Kinase panel assays were performed using the FRET-based Z’- LYTE enzymatic kinase assay system (Life Technologies, Carlsbad, CA), which was carried out using the SelectScreen Kinase Profiling Service (Life Technologies). The standard reaction contained 2 μM peptide substrate, 100 μM ATP, 50 mM HEPES (pH 7.5), 0.01% Brij-35, 10 mM MgCl2, 1 mM EGTA, and each kinase. Cpd-1, Cpd-2, and Cpd-3 at two point concentration (100 and 1000 nM) with duplicate data points (n = 2) were assayed following the detailed procedures outlined in the SelectScreen. The full assay protocol and conditions can be obtained at www.lifetechnologies.com. Percent inhibition represents a ratio of phosphorylated product formed in the presence of the compound compared with phosphorylated product formed in reactions containing 1% DMSO. Inhibition data indicates the mean value of kinase inhibition from duplicate data.

The next assay deals with T2, SRPK2 (Homo sapiens, UniProt P78362).
T2 construct: purchased Millipore
T2 sequence (P78362 whole entry): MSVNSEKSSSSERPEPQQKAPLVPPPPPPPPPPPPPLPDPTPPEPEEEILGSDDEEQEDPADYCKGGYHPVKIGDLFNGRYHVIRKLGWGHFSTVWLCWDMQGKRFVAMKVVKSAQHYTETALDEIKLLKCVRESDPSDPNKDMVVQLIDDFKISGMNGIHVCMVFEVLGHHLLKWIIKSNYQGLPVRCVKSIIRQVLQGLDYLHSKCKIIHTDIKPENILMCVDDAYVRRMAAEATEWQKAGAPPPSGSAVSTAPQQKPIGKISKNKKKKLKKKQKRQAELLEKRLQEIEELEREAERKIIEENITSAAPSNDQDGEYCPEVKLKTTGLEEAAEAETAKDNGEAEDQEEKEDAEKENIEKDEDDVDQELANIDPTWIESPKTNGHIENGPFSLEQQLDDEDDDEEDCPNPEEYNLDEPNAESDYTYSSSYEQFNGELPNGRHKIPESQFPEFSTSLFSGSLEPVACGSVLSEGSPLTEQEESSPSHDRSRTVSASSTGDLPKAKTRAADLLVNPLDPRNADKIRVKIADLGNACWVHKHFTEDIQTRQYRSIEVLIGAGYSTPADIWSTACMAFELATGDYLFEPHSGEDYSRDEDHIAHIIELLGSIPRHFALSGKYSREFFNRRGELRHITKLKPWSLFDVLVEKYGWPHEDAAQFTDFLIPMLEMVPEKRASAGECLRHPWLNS
In words: In vitro kinase assay (ADP-Glo), SRPK2. Format: biochemical. Conditions: 5 µM ATP. As for the experimental part:
(§1) The ATP concentration for each assay was adjusted to the Km for each kinase. Kinase assays for SRPK1–3 and CLK1 were performed using the ADP-Glo™ assay (Promega, Madison, WI). The kinase buffer contained 25 mM HEPES (pH 7.5), 10 mM magnesium acetate, 1 mM DTT, 0.01% BSA, and 0.01% Tween-20. The reaction mixtures contained 50 ng/mL SRPK1, 100 ng/mL SRPK2 or SRPK3, or 300 ng/mL CLK1 and 3 μM substrate peptide [GRSRSRSRSRSRSRSR] (Thermo Scientific). After incubating the enzyme, peptide, and compounds for 10 min, kinase reactions were initiated by adding ATP to a final concentration of 5 µM, followed by incubation for 30 min (15 min for SRPK1). The kinase reactions were terminated by adding ADP-Glo™ reagent (Promega). ADP was detected using a kinase detection reagent (Promega). The kinase activity of CLK2 was measured using the LANCE® Ultra assay (Perkin-Elmer, Waltham, MA) with ADP-Glo assay buffer. The reaction mixtures contained 100 ng/mL CLK2 and 50 nM ULight™-myelin basic protein (MBP) peptide (Perkin-Elmer). After incubating the enzyme, peptide, and compounds for 5 min, kinase reactions were initiated by adding ATP to a final concentration of 20 μM, followed by incubation for 30 min. The enzyme reactions were terminated by adding 30 mM EDTA, and phosphorylated ULight-MBP peptides were detected using a europium-labeled anti-phospho-MBP antibody diluted with detection buffer (Perkin-Elmer). The plates were read using an EnVision 2102 multilabel reader (Perkin-Elmer). We defined the absorbance of the reaction without enzyme as 100% inhibitory activity and that of the complete reaction mixture as 0% inhibitory activity. The IC50 values were estimated using the “Sigmoidal dose-response (variable slope)” equation in GraphPad Prism 5 software (GraphPad Software, San Diego, CA), with the maximum and minimum of the curve constrained to 100 and 0, respectively.
On the technique in general: In ADP-Glo the light output rises with the ADP produced.

In another assay the test system is SW620 cells. In words: Cell viability assay, SW620. The assay is classed as cell-based. The note with it: Homo sapiens, SW-620; SW620 colorectal cancer.
The next assay deals with T3, CLK1 (Homo sapiens, UniProt P49759).
T3 construct: purchased Life Technologies
T3 sequence (P49759 whole entry): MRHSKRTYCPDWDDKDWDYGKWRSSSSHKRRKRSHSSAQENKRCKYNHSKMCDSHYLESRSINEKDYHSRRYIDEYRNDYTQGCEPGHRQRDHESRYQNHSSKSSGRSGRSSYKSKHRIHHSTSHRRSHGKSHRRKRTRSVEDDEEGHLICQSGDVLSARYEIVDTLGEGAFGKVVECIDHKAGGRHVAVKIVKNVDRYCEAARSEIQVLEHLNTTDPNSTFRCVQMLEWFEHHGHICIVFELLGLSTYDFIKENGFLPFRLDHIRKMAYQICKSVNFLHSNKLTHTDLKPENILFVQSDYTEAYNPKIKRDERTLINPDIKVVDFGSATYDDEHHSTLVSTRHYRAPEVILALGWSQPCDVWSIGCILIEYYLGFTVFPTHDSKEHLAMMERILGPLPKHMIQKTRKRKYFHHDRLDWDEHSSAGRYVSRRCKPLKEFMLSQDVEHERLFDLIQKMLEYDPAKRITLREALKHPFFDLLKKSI
In words: In vitro kinase assay (ADP-Glo), CLK1. The assay is classed as biochemical. Conditions: for IC50: 5 µM ATP; for activity for CLK1 relative to Cpd-1: stronger than Cpd-1. The protocol: as §1

One may read the IC50 as the concentration at which inhibition is half-maximal. A word on the GI50: it is the concentration giving 50% growth inhibition. Low values mean greater sensitivity of the cells, high ones lower sensitivity of the cells. Turning to `CC(C)(CCc1nnn[nH]1)c1ccc(C(=O)Nc2cn3cc(C(F)(F)F)ccc3n2)cc1` [Cpd-1, 4-(2-methyl-4-(1H-tetrazol-5-yl)butan-2-yl)-N-(6-(trifluoromethyl)imidazo[1,2-a]pyridin-2-yl)benzamide], the Rc0.1 in assay [1] is over 10 µM. Moreover, the “effect on nuclear speckles” value in assay [2] is listed as “induced enlargement of nuclear speckles”. At CLK2, the “inhibitory activity against CLK2 among the 28 critical oncology-related kinases” value is reported as “strongest inhibitory activity against CLK2”. Also, the IC50 at SRPK2 was determined as 75 nM; at CLK1 it was 16 nM. In the assay on SW620 cells, this molecule gave a GI50 of 41800 nM.
`CC(C)(C)c1ccc(C(=O)Nc2cn3cc(-c4cn[nH]c4)ccc3n2)cn1` [Cpd-2, 6-tert-butyl-N-(6-(1H-pyrazol-4-yl)imidazo[1,2-a]pyridin-2-yl)nicotinamide]: in assay [1], the Rc0.1 was determined as 1.2 µM. Besides, in assay [2], the “effect on nuclear speckles” value is given as “induced enlargement of nuclear speckles”. At CLK2, the “inhibitory activity against CLK2 among the 28 critical oncology-related kinases” value was “strongest inhibitory activity against CLK2”. Besides, the values for the IC50 at SRPK2 and at CLK1 were 310 nM and 1.1 nM, respectively. Also, halving of growth in the assay with SW620 cells (GI50) required 2000 nM. Besides, the “activity for CLK1 relative to Cpd-1” value at CLK1 turned out to be 10 fold.
Turning to `CC(C)(CO)c1ccc(C(=O)Nc2cn3cc(-c4cn[nH]c4)ccc3n2)cc1` [Cpd-3, 4-(1-hydroxy-2-methylpropan-2-yl)-N-(6-(1H-pyrazol-4-yl)imidazo[1,2-a]pyridin-2-yl)benzamide], in assay [1], the Rc0.1 stood at 1.9 µM. Besides, the “effect on nuclear speckles” value in assay [2] is “induced enlargement of nuclear speckles”. Further, the “inhibitory activity against CLK2 among the 28 critical oncology-related kinases” value at CLK2 is “strongest inhibitory activity against CLK2”. Half-maximal inhibition on SRPK2 (IC50) was put at 260 nM. The molecule further displayed a GI50 in the assay with SW620 cells of 2900 nM. Moreover, at CLK1, inhibition was half-maximal at 1.1 nM (IC50) and the “activity for CLK1 relative to Cpd-1” value is given as 10 fold.
